Laboratory results from patent US20160201132A1, “GENE EXPRESSION BIOMARKERS OF LAQUINIMOD RESPONSIVENESS” (Teva Pharmaceutical Industries Ltd., priority 2013, published 2016).

Tested on: PBMC of RRMS patients
Experiment: Gene expression microarray analysis (HG-U133A-2) of PBMC from RRMS patients treated with LAQ, ancillary study to ALLEGRO
Type: in vivo, human
Description: The goal of this ancillary study was to characterize gene expression changes and corresponding biological mechanisms induced in PBMC of RRMS patients by LAQ treatment. According to ALLEGRO clinical trial inclusion criteria, 25 patients were randomly assigned to receive LAQ (n=13, age 38.8±2.3 years, female/male ratio: 8/5) or placebo (n=12, age 37.2±3.4 years, female/male ratio: 8/4).
Peripheral blood samples were obtained from RRMS patients at baseline before start of LAQ treatment or placebo, after 0, 1, 6 and 24 month of treatment (visit 0, 1, 6 and 7 according to ALLEGRO clinical trial protocol correspondently) for gene microarray analysis.
Briefly, 1) Peripheral blood mononuclear cells (PBMC) were obtained from RRMS patients that participated in ALLEGRO and were treated daily with 0.6 mg LAQ or placebo. PBMC were subjected for gene expression analysis (HU-133A-2-Affymatrix arrays) at baseline and at 1 and 6 months of LAQ treatment; 2) Data was analyzed by Partek Genomics Solution software. Most informative genes (MIGs) were defined as those that differentiated between groups with p<0.01. Gene functional annotation, enrichment and pathway analysis were performed by Ingenuity software. For each time point, genes that changed in placebo group were excluded from further analysis; and 3) Verification of LAQ related mechanism was performed by Western blot.
PBMC were extracted from 15 ml peripheral blood, separated by Ficoll-Hypaque gradient. Total RNA was extracted using both Trizol (Invitrogen, USA) and Phase-Lock-Gel columns (Eppendorf, Germany) including a DNase digestion step. RNA integrity was assessed by RNA Experion automated electrophoresis system (Bio-Rad Laboratories, Hercules, Calif.).
Probe synthesis using 3 μg total RNA, hybridization, detection, and scanning was performed according to the standard Affymetrix, Inc. USA protocols; cDNA was synthesized using the Two-Cycle cDNA Synthesis Kit (Affymetrix, Inc., USA), and in-vitro transcription performed with the GeneChip IVT Labeling Kit (Affymetrix, Inc., USA). The biotin-labeled IVT-RNA was hybridized to HG-U133A-2 arrays containing 18,400 gene transcripts, each corresponding to 14,500 well-annotated human genes, washed in a GeneChip Fluidics Station 450 (Hewlett Packard, USA, GeneArray-™ scanner G2500A) and scanned according to the manufacturer's protocol (Affymetrix, Inc., USA).
Data analysis was performed on Partek Genomics Solution software (www.partek.com; Partek Incorporated, St. Louis, Mo.). Expression values were computed from raw CEL files by applying the Robust Multi-Chip Average (RMA) background correction algorithm. RMA correction included: 1) values background correction; 2) quintile normalization; 3) log 2 transformation; and 4) median polish summarization. The ANOVA, Repeated Measures and correlation analysis implicated in Partek software ware applied to evaluate LAQ effects. Most informative genes MIGs were defined as those that differentiated between experimental groups with p<0.01. All p-values were calculated for False Discovery Rate (FDR) multiple test correction at p=0.05.
Additionally, significance of individual genes was tested by parametric T-test and non parametric Mann-Whitney test using Bootstrapping approach based on repeated permutations of the data with 5% FDR for multiple testing.
Gene functional annotation, enrichment, and pathway analyses to identify the leading biological pathways that operated under LAQ treatment were performed by Ingenuity Pathways Analysis software (www.ingenuity.com).
ANOVA analysis was used to compare PBMC gene expression after 1, 6 or 24 month of LAQ treatment with baseline gene expression.
For each time point inventors performed analysis source of variation in dataset. (FIG. 1). Age, gender and batch effects were considered as confounders regarding LAQ or Placebo related changes. For each time point genes associated with Placebo effect were evaluated and excluded from further analysis. […]

[1] = after six months of LAQ treatment
[2] = combined 6 and 24 months vs baseline

CCN(C(=O)c1c(O)c2c(Cl)cccc2n(C)c1=O)c1ccccc1 [LAQ, 5-chloro-N-ethyl-4-hydroxy-1-methyl-2-oxo-N-phenyl-1,2-dihydroquinoline-3-carboxamide]
99%: share of significantly changed genes that were down regulated (six months of treatment)
56: genes (#), Cell signaling: Neurotransmission (after six months of treatment)
−1.18: Fold-Change (4.0 vs. 0.0) (gene BCAP29) | Fold-Change (4.0 vs. 0.0) (gene DCBLD2) | Fold-Change (4.0 vs. 0.0) (gene DPYSL4) | Fold-Change (4.0 vs. 0.0) (gene IFNA17) | Fold-Change (4.0 vs. 0.0) (gene LAMC2) | Fold-Change (4.0 vs. 0.0) (gene MGC2889) | Fold-Change (4.0 vs. 0.0) (gene NOVA2) | Fold-Change (4.0 vs. 0.0) (gene OR2J2) | Fold-Change (4.0 vs. 0.0) (gene PRSS7) | Fold-Change (4.0 vs. 0.0) (gene RAB11B) | Fold-Change (4.0 vs. 0.0) (gene RAD51) | Fold-Change (4.0 vs. 0.0) (gene RELN) | Fold-Change (4.0 vs. 0.0) (gene TACR2) | Fold-Change (4.0 vs. 0.0) (gene VSNL1)
4.95*10^−4 to 1.26*10^−3: p, down-regulation of MMP16/24/26/28 and ADAM12/18/22 [1]
−1.178: Fold-Change (4.0 vs. 0.0) (gene ASCL1) | Fold-Change (4.0 vs. 0.0) (gene BCAN) | Fold-Change (4.0 vs. 0.0) (gene DDN) | Fold-Change (4.0 vs. 0.0) (gene DUOX2) | Fold-Change (4.0 vs. 0.0) (gene FAM188A) | Fold-Change (4.0 vs. 0.0) (gene GPR12) | Fold-Change (4.0 vs. 0.0) (gene HS3ST3B1) | Fold-Change (4.0 vs. 0.0) (gene MORN1) | Fold-Change (4.0 vs. 0.0) (gene SERPINB3) | Fold-Change (4.0 vs. 0.0) (gene SLC39A2)
−1.1816: Fold-Change (4.0 vs. 0.0) (gene TRIO)
−1.286: Fold-Change (4.0 vs. 0.0) (gene MALL, after six months of LAQ)
29: genes (#), Leukocyte Extravasation Signaling (after six months of treatment, inflammatory response function)
−1.182: Fold-Change (4.0 vs. 0.0) (gene CLN8) | Fold-Change (4.0 vs. 0.0) (gene GRM8) | Fold-Change (4.0 vs. 0.0) (gene NR1I2) | Fold-Change (4.0 vs. 0.0) (gene OR3A3) | Fold-Change (4.0 vs. 0.0) (gene PACRG) | Fold-Change (4.0 vs. 0.0) (gene PAH) | Fold-Change (4.0 vs. 0.0) (gene SLC25A10) | Fold-Change (4.0 vs. 0.0) (gene TTLL5) | Fold-Change (4.0 vs. 0.0) (gene ZNF215)
13: genes (#), Caveolar mediated endocytosis (after six months of treatment)
−1.181: Fold-Change (4.0 vs. 0.0) (gene ATN1) | Fold-Change (4.0 vs. 0.0) (gene CA10) | Fold-Change (4.0 vs. 0.0) (gene CNOT4) | Fold-Change (4.0 vs. 0.0) (gene CYR61) | Fold-Change (4.0 vs. 0.0) (gene GRM1) | Fold-Change (4.0 vs. 0.0) (gene HHLA1) | Fold-Change (4.0 vs. 0.0) (gene HOXC11) | Fold-Change (4.0 vs. 0.0) (gene ITGB4) | Fold-Change (4.0 vs. 0.0) (gene LAMA3) | Fold-Change (4.0 vs. 0.0) (gene PRKG1) | Fold-Change (4.0 vs. 0.0) (gene SLC6A11) | Fold-Change (4.0 vs. 0.0) (gene SLC37A4) | Fold-Change (4.0 vs. 0.0) (gene SLCO5A1) | Fold-Change (4.0 vs. 0.0) (gene SOD3) | Fold-Change (4.0 vs. 0.0) (gene STRA6)
−1.289: Fold-Change (4.0 vs. 0.0) (gene GRK5, after six months of LAQ)
14: genes (#), TGFB signaling (after six months of treatment)
−1.177: Fold-Change (4.0 vs. 0.0) (gene CLCN7) | Fold-Change (4.0 vs. 0.0) (gene RUNX2) | Fold-Change (4.0 vs. 0.0) (gene TTYH1) | Fold-Change (4.0 vs. 0.0) (gene ZNF280B)
120: genes (#), Cellular movement: Invasion of cells (after six months of treatment)
3*10^−3 to 9*10^−3: p, down regulation of pro-inflammatory cytokines IL-9/11/12/20/36, TNFRSF11A/B, IFNA4/8/10/17 and receptors for IL-5/13/20/22 [1]
−1.1842: Fold-Change (4.0 vs. 0.0) (gene NPR1)
2922: # of genes p < 0.01 (LAQ related MIGs, ANOVA) [2]
−1.183: Fold-Change (4.0 vs. 0.0) (gene AKAP9) | Fold-Change (4.0 vs. 0.0) (gene C10orf81) | Fold-Change (4.0 vs. 0.0) (gene FAM189A1) | Fold-Change (4.0 vs. 0.0) (gene ICMT) | Fold-Change (4.0 vs. 0.0) (gene IGHG1) | Fold-Change (4.0 vs. 0.0) (gene MGC31957) | Fold-Change (4.0 vs. 0.0) (gene MYOZ1) | Fold-Change (4.0 vs. 0.0) (gene NTRK2) | Fold-Change (4.0 vs. 0.0) (gene PKNOX2) | Fold-Change (4.0 vs. 0.0) (gene PRDM11) | Fold-Change (4.0 vs. 0.0) (gene RET) | Fold-Change (4.0 vs. 0.0) (gene XPNPEP2)
6: genes (#), Hematological system: Intrinsic prothrombin activation pathway (after six months of treatment)
98%: share of significantly changed genes that were down regulated (one month of treatment)
305: down-regulated genes related to cellular movement mechanisms (of 1564 genes that passed FDR, more than 6 months (combined 6 and 24 months))
−1.184: Fold-Change (4.0 vs. 0.0) (gene AAK1) | Fold-Change (4.0 vs. 0.0) (gene ACSM5) | Fold-Change (4.0 vs. 0.0) (gene ACTA1) | Fold-Change (4.0 vs. 0.0) (gene CLEC4M) | Fold-Change (4.0 vs. 0.0) (gene DHX34) | Fold-Change (4.0 vs. 0.0) (gene DNAH3) | Fold-Change (4.0 vs. 0.0) (gene KCND3) | Fold-Change (4.0 vs. 0.0) (gene NAGLU) | Fold-Change (4.0 vs. 0.0) (gene NNAT) | Fold-Change (4.0 vs. 0.0) (gene POPDC3) | Fold-Change (4.0 vs. 0.0) (gene SLC30A3)
18: genes (#), Development: Arachidonic Acid metabolism (after six months of treatment)
119: genes (#), Adhesion of cells (after six months of treatment)
−1.1781: Fold-Change (4.0 vs. 0.0) (gene ZNF484)
31: genes (#), Leukocyte Extravasation Signaling (after six months of treatment, cellular movement function)
−1.284: Fold-Change (4.0 vs. 0.0) (gene ESPL1, after six months of LAQ)
−1.179: Fold-Change (4.0 vs. 0.0) (gene AIF1) | Fold-Change (4.0 vs. 0.0) (gene CBS) | Fold-Change (4.0 vs. 0.0) (gene EXO1) | Fold-Change (4.0 vs. 0.0) (gene GPRIN2) | Fold-Change (4.0 vs. 0.0) (gene IHH) | Fold-Change (4.0 vs. 0.0) (gene NECAB2) | Fold-Change (4.0 vs. 0.0) (gene NOX1) | Fold-Change (4.0 vs. 0.0) (gene OR1A2) | Fold-Change (4.0 vs. 0.0) (gene PDX1) | Fold-Change (4.0 vs. 0.0) (gene POLQ) | Fold-Change (4.0 vs. 0.0) (gene PRKCE) | Fold-Change (4.0 vs. 0.0) (gene PURA)
−1.288: Fold-Change (4.0 vs. 0.0) (gene PARD3, after six months of LAQ) | Fold-Change (4.0 vs. 0.0) (gene VPS37B, after six months of LAQ)
73: genes (#), Development: G protein Coupled Receptor Signaling (after six months of treatment)
260: genes related to suppression of Cellular movement functions (out of 1562 genes, 6 months of treatment)
11: genes (#), Inflammatory response: IL-12 signaling (after six months of treatment) | Up-regulated genes (LAQ related MIGs) [2]
6.79*10^−3: p, suppression of CCL19 and chemokine receptor CXCR1/2 [1]
−1.285: Fold-Change (4.0 vs. 0.0) (gene ALX4, after six months of LAQ) | Fold-Change (4.0 vs. 0.0) (gene KRT5, after six months of LAQ) | Fold-Change (4.0 vs. 0.0) (gene SOX15, after six months of LAQ)
−1.1819: Fold-Change (4.0 vs. 0.0) (gene GIPR)
2911: Down regulated genes (LAQ related MIGs) [2]
7: genes (#), Hematological system: Coagulation system (after six months of treatment)
−1.2873: Fold-Change (4.0 vs. 0.0) (gene CYP2B6 /// CYP2B7P1, after six months of LAQ)
50: suppressed molecules associated with different mechanisms of inflammatory response (of 354 genes affected after 1 month of treatment)
